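How tested: cells in 96-well plates exposed to compound for 48 hours at five concentrations. Here, GI50 denotes the concentration required for 50% inhibition of growth.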 The source made the active and inactive calls. No stated cut-off is given here; in the data, active = GI50 up to about 1.1 µM and inactive = higher.
Tests used:
Assay in all cases: DTP human tumour cell line panel, 48 h
IGROV-1 = tested on: IGROV-1
UACC-62 = tested on: UACC-62
A549 = tested on: A549
SNB-19 = tested on: SNB-19
HOP-62 = tested on: HOP-62
CCRF-CEM = tested on: CCRF-CEM
HCT-116 = tested on: HCT-116
Malme-3M = tested on: Malme-3M
HCC 2998 = tested on: HCC 2998
EKVX = tested on: EKVX
BT-549 = tested on: BT-549
SF-539 = tested on: SF-539
MDA-N = tested on: MDA-N
SK-MEL-28 = tested on: SK-MEL-28
786-0 = tested on: 786-0
OVCAR-4 = tested on: OVCAR-4
MOLT-4 = tested on: MOLT-4
PC-3 = tested on: PC-3
UACC-257 = tested on: UACC-257
COLO 205 = tested on: COLO 205
SF-268 = tested on: SF-268
NCI-H23 = tested on: NCI-H23
NCI-H226 = tested on: NCI-H226
MDA-MB-231 = tested on: MDA-MB-231
T47D = tested on: T47D
U-251 = tested on: U-251
MDA-MB-435 = tested on: MDA-MB-435
Hs-578T = tested on: Hs-578T
HL-60 = tested on: HL-60
HCT-15 = tested on: HCT-15
RXF 393 = tested on: RXF 393
KM12 = tested on: KM12
NCI/ADR-RES = tested on: NCI/ADR-RES
SN12C = tested on: SN12C
SK-OV-3 = tested on: SK-OV-3
MCF7 = tested on: MCF7
NCI-H522 = tested on: NCI-H522
ACHN = tested on: ACHN
UO-31 = tested on: UO-31
OVCAR-8 = tested on: OVCAR-8
SK-MEL-2 = tested on: SK-MEL-2
DU-145 = tested on: DU-145
SK-MEL-5 = tested on: SK-MEL-5
SNB-75 = tested on: SNB-75
OVCAR-5 = tested on: OVCAR-5
RPMI-8226 = tested on: RPMI-8226
M14 = tested on: M14
SF-295 = tested on: SF-295
CAKI-1 = tested on: CAKI-1
HT-29 = tested on: HT-29
A498 = tested on: A498
SW-620 = tested on: SW-620
LOX IMVI = tested on: LOX IMVI
NCI-H460 = tested on: NCI-H460
OVCAR-3 = tested on: OVCAR-3
TK-10 = tested on: TK-10

N#Cc1nnn(C2CCCCC2)c1O
GI50 (IGROV-1): > 100 µM (inactive) | GI50 (UACC-62): > 100 µM (inactive) | GI50 (A549): > 100 µM (inactive) | GI50 (SNB-19): > 100 µM (inactive) | GI50 (HOP-62): > 100 µM (inactive) | GI50 (CCRF-CEM): > 100 µM (inactive) | GI50 (HCT-116): > 100 µM (inactive) | GI50 (Malme-3M): > 100 µM (inactive) | GI50 (HCC 2998): > 100 µM (inactive) | GI50 (EKVX): > 100 µM (inactive) | GI50 (BT-549): > 100 µM (inactive) | GI50 (SF-539): > 100 µM (inactive) | GI50 (MDA-N): > 100 µM (inactive) | GI50 (SK-MEL-28): > 100 µM (inactive) | GI50 (786-0): > 100 µM (inactive) | GI50 (OVCAR-4): > 100 µM (inactive) | GI50 (MOLT-4): > 100 µM (inactive) | GI50 (PC-3): > 100 µM (inactive) | GI50 (UACC-257): > 100 µM (inactive) | GI50 (COLO 205): > 100 µM (inactive) | GI50 (SF-268): > 100 µM (inactive) | GI50 (NCI-H23): > 100 µM (inactive) | GI50 (NCI-H226): > 100 µM (inactive) | GI50 (MDA-MB-231): > 100 µM (inactive) | GI50 (T47D): > 100 µM (inactive) | GI50 (U-251): > 100 µM (inactive) | GI50 (MDA-MB-435): > 100 µM (inactive) | GI50 (Hs-578T): > 100 µM (inactive) | GI50 (HL-60): > 100 µM (inactive) | GI50 (HCT-15): > 100 µM | GI50 (RXF 393): > 100 µM (inactive) | GI50 (KM12): > 100 µM (inactive) | GI50 (NCI/ADR-RES): > 100 µM (inactive) | GI50 (SN12C): > 100 µM (inactive) | GI50 (SK-OV-3): > 100 µM (inactive) | GI50 (MCF7): > 100 µM (inactive) | GI50 (NCI-H522): > 100 µM (inactive) | GI50 (ACHN): > 100 µM (inactive) | GI50 (UO-31): > 100 µM (inactive) | GI50 (OVCAR-8): > 100 µM (inactive) | GI50 (SK-MEL-2): > 100 µM (inactive) | GI50 (DU-145): > 100 µM (inactive) | GI50 (SK-MEL-5): > 100 µM (inactive) | GI50 (SNB-75): > 100 µM (inactive) | GI50 (OVCAR-5): > 100 µM (inactive) | GI50 (RPMI-8226): 10 µM (inactive) | GI50 (M14): > 100 µM (inactive) | GI50 (SF-295): > 100 µM (inactive) | GI50 (CAKI-1): > 100 µM (inactive) | GI50 (HT-29): > 100 µM (inactive) | GI50 (A498): > 100 µM (inactive) | GI50 (SW-620): > 100 µM (inactive) | GI50 (LOX IMVI): > 100 µM (inactive) | GI50 (NCI-H460): > 100 µM (inactive) | GI50 (OVCAR-3): > 100 µM (inactive) | GI50 (TK-10): > 100 µM (inactive)

— ChEMBL document CHEMBL1201862, “PubChem BioAssay data set” (2004)
